Assay results published in US20240408107A1, “LACTAM PYRROLIDINE-PYRAZOLES AS PYRUVATE KINASE ACTIVATORS” (Global Blood Therapeutics, Inc., priority 2021, published 2024).

Columns and labels:
[1] = test system: PK activity, ATP levels, RBC parameters; conditions: mouse model of beta-thalassemia; cited from earlier work
[2] = target: T1, human pyruvate kinase R (PKR) (Homo sapiens, UniProt P30613); assay: Biochemical assay for activation of pyruvate kinase R (Kinase-Glo luminescence, ATP generation); conditions: for AC50: PKR biochemical assay, 0.1 nM PKR; for Emax: maximal activation level relative to the activation level achieved by AG-348 @ 10 μM
T1 construct: Human pyruvate kinase R (PKR), residues 14-574; 6xHis (N, cleaved yes); 8xArg (N, cleaved yes); SUMO (N, cleaved yes); host or cells: E. coli
T1 sequence (P30613 14-574): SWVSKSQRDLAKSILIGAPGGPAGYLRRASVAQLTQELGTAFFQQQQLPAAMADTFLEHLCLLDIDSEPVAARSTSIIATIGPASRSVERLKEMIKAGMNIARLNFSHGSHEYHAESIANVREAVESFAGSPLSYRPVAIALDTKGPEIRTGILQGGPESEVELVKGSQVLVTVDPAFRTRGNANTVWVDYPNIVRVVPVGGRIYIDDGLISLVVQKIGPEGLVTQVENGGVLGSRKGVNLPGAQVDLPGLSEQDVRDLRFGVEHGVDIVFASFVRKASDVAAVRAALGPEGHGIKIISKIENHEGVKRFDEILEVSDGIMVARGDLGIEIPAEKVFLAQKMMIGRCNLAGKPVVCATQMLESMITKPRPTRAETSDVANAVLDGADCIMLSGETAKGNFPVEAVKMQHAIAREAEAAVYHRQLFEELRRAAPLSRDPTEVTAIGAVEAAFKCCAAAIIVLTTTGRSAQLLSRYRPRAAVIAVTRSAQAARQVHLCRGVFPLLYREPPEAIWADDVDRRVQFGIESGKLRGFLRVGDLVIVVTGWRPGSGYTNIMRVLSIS
Protocol: Human pyruvate kinase R (PKR), residues 14-574, and human pyruvate kinase M2, residues 1-531, were cloned into expression plasmids and obtained from ATUM Bio (Newark, CA). Proteins were translated as fusions with 6×-His,8×-Arg, and SUMO at the N-terminus. A third construct of human PKR was truncated, residues 50-574, and similarly cloned for use in crystallography experiments. All proteins were cloned, expressed in E. coli, and purified using similar protocols. Cells were grown at 30° C. in Luria-Bertani broth supplemented with 0.4% glucose to OD600=0.8 and induced with 0.4 mM IPTG at 16° C. for 18 hours. Cells were harvested by centrifugation, resuspended in 50 mM potassium phosphate pH 8.0, 500 mM NaCl, 25 mM imidazole pH 8.0, and 3 mM β-mercaptoethanol. Cells were lysed using a LM20 microfluidizer from Microfluidics (Westwood, MA). The crude lysate was immediately supplemented with 0.2 mM phenylmethylsulfonyl fluoride (PMSF) and centrifuged at 20,000 g for 20 minutes. The soluble fraction was subsequently incubated with 2 mL Ni-NTA (GE Healthcare) per 1,000 ODs for 1 hour at 4° C. Following incubation with the Ni-NTA resin, lysate was removed by pelleting resin at 2,500 g for 3 minutes and washed 3 times with 9 bed volumes of 50 mM potassium phosphate pH 8.0, 500 mM NaCl, 25 mM imidazole, and 3 mM β-mercaptoethanol. Following the batch wash Ni-NTA resin was loaded onto a gravity column and His-tagged protein was eluted with 6 bed volumes of 10 mM Tris/HCl pH 8.0, 200 mM NaCl, 500 mM imidazole, and 3 mM β-mercaptoethanol. Eluted protein was dialyzed overnight against 10 mM Tris/HCl pH 8.0, 200 mM NaCl, and 1 mM DTT and the 6×-His-8×-Arg-SUMO-tag was cleaved using a 20:1 molar ratio of protein:3C protease. The protein was purified by anion exchange chromatography on a HiTrapQ or MonoQ 10/100 GL column (GE Healthcare) via a linear NaCl gradient and twice by size exclusion chromatography using a Superdex S200 26/60 column (GE Healthcare) run in 10 mM Tris/HCl pH 8.0, 200 mM NaCl, 10 mM MgCl2, 1 mM DTT. Proteins were concentrated to ˜12 mg/mL for crystallization and flash frozen for storage.
Activation of pyruvate kinase R (PKR) and pyruvate kinase M2 (PKM2) were measured using a luminescence based measurement of ATP generation and the Kinase-Glo luminescent kinase reagent kit. 0.1 nM of PKR or PKM2 was incubated for 1 hour with 0.3 mM ADP, 2 mM FBP, 1% DMSO, compound and Assay Buffer mix (500 mM Tris/HCl pH 7.5, 500 mM NaCl, 50 mM MgCl2, BSA, and 2 mM DTT, in a total reaction volume of 30 uL. After one hour PEP was added to the reaction at a final concentration of 0.1 mM and incubated for another hour at room temperature. 30 uL of KinaseGlo reagent was added and the reaction was incubated for 15 minutes. Endpoint luminescence data was measured using an EnVision plate reader (PerkinElmer). The assay results are provided in Table 2 for PKR.

[3] = target: T2, Pyruvate Kinase M2 (PKM2) in H1299 cells (Homo sapiens, UniProt P14618); assay: Cell based assay for activation of pyruvate kinase M2 in lung carcinoma cell line (H1299, NADH/LDH coupled assay of lysate); conditions: PKM2 cellular assay; for AC50: H1299 cells, 90 minutes with compound; for PKM2 % activation: maximal activation level relative to the activation level achieved by AG-348 @ 10 μM
T2 construct: endogenous in cells; host or cells: H1299 cells
T2 sequence (P14618 2-531 limits assumed): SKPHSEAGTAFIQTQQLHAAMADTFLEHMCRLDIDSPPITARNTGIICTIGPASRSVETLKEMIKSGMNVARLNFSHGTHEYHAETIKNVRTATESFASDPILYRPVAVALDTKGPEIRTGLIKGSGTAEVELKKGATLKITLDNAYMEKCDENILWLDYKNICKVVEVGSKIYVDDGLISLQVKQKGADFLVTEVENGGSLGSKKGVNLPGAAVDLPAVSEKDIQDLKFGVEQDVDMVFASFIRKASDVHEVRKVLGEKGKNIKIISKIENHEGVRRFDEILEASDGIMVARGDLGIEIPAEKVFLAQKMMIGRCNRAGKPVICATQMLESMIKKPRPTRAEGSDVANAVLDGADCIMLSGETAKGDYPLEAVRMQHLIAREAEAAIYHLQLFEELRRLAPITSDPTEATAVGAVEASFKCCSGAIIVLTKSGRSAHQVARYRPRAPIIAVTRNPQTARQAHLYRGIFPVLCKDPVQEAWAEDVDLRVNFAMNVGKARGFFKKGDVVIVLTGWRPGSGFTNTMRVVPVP
Protocol: H1299 cells were seeded in 96-well plates at 2,000 cells/well (100 uL). Treated plates were incubated overnight at 37° C. with 5% CO2. Compounds were diluted in complete media and added to cells in the presence of 1% DMSO. Cells were incubated with compound for 90 minutes at 37° C. and 5% CO2 before washing three times with PBS to remove residual compound and then lysed in lysis buffer (Cell Signaling). Cell lysate was analyzed using the NADH coupled assay described below with a reaction mixture of 180 uM NADH, 2 mM ADP, 0.5 units of LDH and 0.5 mM of PEP. PKM2 activity was measured at steady state using a coupled enzyme activation system based on NADH consumption. PKM2 produces pyruvate and the coupled system uses lactate dehydrogenase (LDH) to reduce pyruvate to lactate with the concomitant oxidation of NADH to NAD^+. Conversion of NADH to NAD^+ was monitored using a SPECTROstar Nano plate reader (BMG Labtech) at a wavelength of 340 nm and subtraction of background absorbance measured at 750 nm. The change in NADH absorbance after PEP addition was monitored and slope obtained by subtracting baseline at 750 nm followed by least squares fitting to a simple linear regression model. A 10-point curve was generated to calculate the AC50 values by fitting the rates of NADH consumption against increasing concentration of compound.

Row | AC50 [2] | Emax [2] | AC50 [3] | PKM2 % activation [3] | Compound | PK activity and ATP levels [1] | RBC parameters [1]
1 | 230 nM | 212% |  |  | O=C1Nc2ccccc2C1CC(=O)N1Cc2cn(S(=O)(=O)c3cnn(CC(F)F)c3)nc2C1 (stereo not drawn) [Compound 1, 3-[2-(2-{[1-(2,2-difluoroethyl)-1H-pyrazol-4-yl]sulfonyl}-2H,4H,5H,6H-pyrrolo[3,4-c]pyrazol-5-yl)-2-oxoethyl]-2,3-dihydro-1H-indol-2-one] |  | 
2 | 1800 nM | 60% |  |  | O=C(Cn1c(=O)oc2ccccc21)N1Cc2cn(S(=O)(=O)c3cnn(CC(F)F)c3)nc2C1 [Compound 3, 3-[2-(2-{[1-(2,2-difluoroethyl)-1H-pyrazol-4-yl]sulfonyl}-2H,4H,5H,6H-pyrrolo[3,4-c]pyrazol-5-yl)-2-oxoethyl]-2,3-dihydro-1,3-benzoxazol-2-one] |  | 
3 | 490 nM | 91% |  |  | O=C1COc2ccccc2C(C(=O)N2Cc3cn(S(=O)(=O)c4cnn(CC(F)F)c4)nc3C2)N1 (stereo not drawn) [Compound 5, 5-(2-{[1-(2,2-difluoroethyl)-1H-pyrazol-4-yl]sulfonyl}-2H,4H,5H,6H-pyrrolo[3,4-c]pyrazole-5-carbonyl)-2,3,4,5-tetrahydro-1,4-benzoxazepin-3-one] |  | 
4 | 1900 nM | 95% |  |  | CC1(CC(=O)N2Cc3cn(S(=O)(=O)c4cnn(CC(F)F)c4)nc3C2)C(=O)Nc2ccccc21 (stereo not drawn) [Compound 8, 3-[2-(2-{[1-(2,2-difluoroethyl)-1H-pyrazol-4-yl]sulfonyl}-2H,4H,5H,6H-pyrrolo[3,4-c]pyrazol-5-yl)-2-oxoethyl]-3-methyl-2,3-dihydro-1H-indol-2-one] |  | 
5 | 28 nM | 161% | 100 nM | 87% | O=C1Nc2ccccc2C1CC(=O)N1Cc2cn(S(=O)(=O)c3ccc4ncsc4c3)nc2C1 (stereo not drawn) [Compound 9, 3-{2-[2-(1,3-benzothiazole-6-sulfonyl)-2H,4H,5H,6H-pyrrolo[3,4-c]pyrazol-5-yl]-2-oxoethyl}-2,3-dihydro-1H-indol-2-one] |  | 
6 | 78 nM | 129% | 14 nM | 165% | O=C1Nc2ccccc2C1CC(=O)N1Cc2cn(S(=O)(=O)c3ccc(OC(F)F)cc3)nc2C1 (stereo not drawn) [Compound 10, 3-(2-{2-[4-(difluoromethoxy)benzenesulfonyl]-2H,4H,5H,6H-pyrrolo[3,4-c]pyrazol-5-yl}-2-oxoethyl)-2,3-dihydro-1H-indol-2-one] |  | 
7 | 210 nM | 91% |  |  | O=C1COc2ccccc2C(C(=O)N2Cc3cn(S(=O)(=O)c4ccc(OC(F)F)cc4)nc3C2)N1 (stereo not drawn) [Compound 12, 5-{2-[4-(difluoromethoxy)benzenesulfonyl]-2H,4H,5H,6H-pyrrolo[3,4-c]pyrazole-5-carbonyl}-2,3,4,5-tetrahydro-1,4-benzoxazepin-3-one] |  | 

Further lines, the molecule ahead of its results:

Row | Compound | AC50 [2] | Emax [2] | AC50 [3] | PKM2 % activation [3] | PK activity and ATP levels [1] | RBC parameters [1]
8 | O=C(c1ccc(NS(=O)(=O)c2cccc3cccnc23)cc1)N1CCN(CC2CC2)CC1 [AG-348, Mitapivat] |  |  |  |  | increased | improved
9 | O=C(CN1C(=O)Cc2ccccc21)N1Cc2cn(S(=O)(=O)c3cnn(CC(F)F)c3)nc2C1 [Compound 2, 1-[2-(2-{[1-(2,2-difluoroethyl)-1H-pyrazol-4-yl]sulfonyl}-2H,4H,5H,6H-pyrrolo[3,4-c]pyrazol-5-yl)-2-oxoethyl]-2,3-dihydro-1H-indol-2-one] | 410 nM | 32% |  |  |  | 
10 | O=C(Cn1c(=O)[nH]c2ccccc21)N1Cc2cn(S(=O)(=O)c3cnn(CC(F)F)c3)nc2C1 [Compound 4, 1-[2-(2-{[1-(2,2-difluoroethyl)-1H-pyrazol-4-yl]sulfonyl}-2H,4H,5H,6H-pyrrolo[3,4-c]pyrazol-5-yl)-2-oxoethyl]-2,3-dihydro-1H-1,3-benzodiazol-2-one] | 10000 nM | 78% |  |  |  | 
11 | O=C1Cc2ccccc2C(C(=O)N2Cc3cn(S(=O)(=O)c4cnn(CC(F)F)c4)nc3C2)N1 (stereo not drawn) [Compound 6, 1-(2-{[1-(2,2-difluoroethyl)-1H-pyrazol-4-yl]sulfonyl}-2H,4H,5H,6H-pyrrolo[3,4-c]pyrazole-5-carbonyl)-1,2,3,4-tetrahydroisoquinolin-3-one] | 4400 nM | 84% |  |  |  | 
12 | O=C1COc2c(F)cccc2C(C(=O)N2Cc3cn(S(=O)(=O)c4cnn(CC(F)F)c4)nc3C2)N1 (stereo not drawn) [Compound 7, 5-(2-{[1-(2,2-difluoroethyl)-1H-pyrazol-4-yl]sulfonyl}-2H,4H,5H,6H-pyrrolo[3,4-c]pyrazole-5-carbonyl)-9-fluoro-2,3,4,5-tetrahydro-1,4-benzoxazepin-3-one] | 1800 nM | 66% |  |  |  | 
13 | O=C(CN1C(=O)Cc2ccccc21)N1Cc2cn(S(=O)(=O)c3ccc(OC(F)F)cc3)nc2C1 [Compound 11, 1-(2-{2-[4-(difluoromethoxy)benzenesulfonyl]-2H,4H,5H,6H-pyrrolo[3,4-c]pyrazol-5-yl}-2-oxoethyl)-2,3-dihydro-1H-indol-2-one] | 1700 nM | 77% |  |  |  | 
